In patent publication US20220144838A1, “Compounds as Inhibitors of Macrophage Migration Inhibitory Factor” (NANJING IMMUNOPHAGE BIOTECH CO., LTD., priority 2019, published 2022):

target: T1, MIF (Homo sapiens, UniProt P14174); test: MIF tautomerase assay using pHPP as substrate; assay type: biochemical; settings: inhibition of the MIF enzyme in vitro; mean of multiple test results; read-out: Tautomerase Inhibition pIC50 (converted)
T1 sequence (P14174 2-115 limits assumed): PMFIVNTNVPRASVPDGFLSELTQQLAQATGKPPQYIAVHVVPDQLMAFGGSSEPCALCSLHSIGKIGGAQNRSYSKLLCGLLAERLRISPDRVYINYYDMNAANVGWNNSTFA
Summary of the method: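 Mean pIC50 derived from initial rates (absorbance progress-curve slopes) of MIF-catalyzed ketonic-to-enolic pHPP conversion, read as enol–borate complex. Reactions contained 1.5 mM substrate and 3 nM enzyme (final), 200 mM boric acid stock buffer, BSA and CHAPS, pH 6.0.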

Compared with `Cc1nc2ccccc2n1-c1nc(N2CCN(c3ccc(O)cc3)CC2)nc2c1ncn2CC(=O)O` [Example 28, 2-(2-(4-(4-hydroxyphenyl)piperazin-1-yl)-6-(2-methyl-1H-benzo[d]imidazol-1-yl)-9H-purin-9-yl)acetic acid], `Cc1cccc2c1nnn2-c1nc(N2CCN(c3ccc(O)cc3)CC2)nc2c1ncn2CC(=O)O` [Example 20, 2-(2-(4-(4-hydroxyphenyl)piperazin-1-yl)-6-(4-methyl-1H-benzo[d][1,2,3]triazol-1-yl)-9H-purin-9-yl)acetic acid] is lower in IC50: 1 to 9.77 µM for the first, 0.01 to 0.0977 µM for the second.

`O=C(O)C1CCCN(c2nc(N3CCN(c4ccc(O)cc4)CC3)nc3c2ncn3-c2ccncc2)C1` (stereo not shown) [Example 170, 1-(2-(4-(4-hydroxyphenyl)piperazin-1-yl)-9-(pyridin-4-yl)-9H-purin-6-yl)piperidine-3-carboxylic acid] and `O=C(O)C1CCN(c2nc(N3CCN(c4ccc(O)cc4)CC3)nc3c2ncn3-c2ccncc2)C1` (stereo not shown) [Example 164, 1-(2-(4-(4-hydroxyphenyl)piperazin-1-yl)-9-(pyridin-4-yl)-9H-purin-6-yl)pyrrolidine-3-carboxylic acid] fall in the same range of IC50: 0.01 to 0.0977 µM for the first, 0.01 to 0.0977 µM for the second.

`O=C(Cn1cnc2c(-n3ncc4ccccc43)nc(N3CCN(c4ccc(O)cc4)CC3)nc21)NS(=O)(=O)c1ccccc1` [Example 97, 2-(2-(4-(4-hydroxyphenyl)piperazin-1-yl)-6-(1H-indazol-1-yl)-9H-purin-9-yl)-N-(phenylsulfonyl)acetamide] and `CCCS(=O)(=O)NC(=O)Cn1cnc2c(-n3ncc4ccccc43)nc(N3CCN(c4ccc(O)cc4)CC3)nc21` [Example 56, 2-(2-(4-(4-hydroxyphenyl)piperazin-1-yl)-6-(1H-indazol-1-yl)-9H-purin-9-yl)-N-(propylsulfonyl)acetamide] fall in the same range of IC50: 0.1 to 0.977 µM for the first, 0.1 to 0.977 µM for the second.

`COC(=O)Cn1cnc2c(-n3ncc4ccccc43)nc(N3CCN(c4ccc(O)cc4)CC3)nc21` [Example 131, methyl 2-(2-(4-(4-hydroxyphenyl)piperazin-1-yl)-6-(1H-indazol-1-yl)-9H-purin-9-yl)acetate] and `OCCn1cnc2c(-n3ncc4ccccc43)nc(N3CCN(c4ccc(O)cc4)CC3)nc21` [Example 3, 4-(4-(9-(2-hydroxyethyl)-6-(1H-indazol-1-yl)-9H-purin-2-yl)piperazin-1-yl)phenol] fall in the same range of IC50: 0.1 to 0.977 µM for the first, 0.1 to 0.977 µM for the second.

First: O=C(O)Cn1cnc2nc(N3CCN(c4ccc(O)cc4)CC3)nc(-n3ncc4ccccc43)c21 [Example 46, 2-(2-(4-(4-hydroxyphenyl)piperazin-1-yl)-6-(1H-indazol-1-yl)-7H-purin-7-yl)acetic acid]
Second: O=C(O)CCCCn1cnc2c(-n3ncc4ccccc43)nc(N3CCN(c4ccc(O)cc4)CC3)nc21 [Example 150, 5-(2-(4-(4-hydroxyphenyl)piperazin-1-yl)-6-(1H-indazol-1-yl)-9H-purin-9-yl)pentanoic acid]
The IC50 of the first is higher: 0.1 to 0.977 µM for the first, 0.01 to 0.0977 µM for the second.

`O=C(O)Cn1cnc2c(-n3ncc4ccccc43)nc(N3CCN(c4ccc5[nH]ncc5c4)CC3)nc21` [Example 140, 2-(2-(4-(1H-indazol-5-yl)piperazin-1-yl)-6-(1H-indazol-1-yl)-9H-purin-9-yl)acetic acid] and `O=C(O)Cn1cnc2c(-n3ncc4ccccc43)nc(N3CCN(c4ccc(O)nc4)CC3)nc21` [Example 129, 2-(2-(4-(6-hydroxypyridin-3-yl)piperazin-1-yl)-6-(1H-indazol-1-yl)-9H-purin-9-yl)acetic acid] cannot be ordered by IC50: over 10 µM for the first, over 10 µM for the second.

`Oc1ccc(N2CCN(c3nc(N4CCc5ccccc54)c4ncn(-c5cccnc5)c4n3)CC2)cc1` [Example 39, 4-(4-(6-(indolin-1-yl)-9-(pyridin-3-yl)-9H-purin-2-yl)piperazin-1-yl)phenol] and `Oc1ccc(N2CCN(c3nc(NCCc4ccccc4)c4ncn(-c5cccnc5)c4n3)CC2)cc1` [Example 91, 4-(4-(6-(phenethylamino)-9-(pyridin-3-yl)-9H-purin-2-yl)piperazin-1-yl)phenol] fall in the same range of IC50: 0.1 to 0.977 µM for the first, 0.1 to 0.977 µM for the second.

Compared with `CNC(=O)c1ccc(-n2cnc3c(N)nc(N4CCN(c5ccc(O)cc5)CC4)nc32)cc1` [Example 103, 4-(6-amino-2-(4-(4-hydroxyphenyl)piperazin-1-yl)-9H-purin-9-yl)-N-methylbenzamide], `Nc1nc(N2CCN(c3ccc(O)cc3)CC2)nc2c1ncn2-c1ccc(Cl)cc1` [Example 75, 4-(4-(6-amino-9-(4-chlorophenyl)-9H-purin-2-yl)piperazin-1-yl)phenol] is higher in IC50: 1 to 9.77 µM for the first, over 10 µM for the second.

`COc1cccc(-n2cnc3c(C)nc(N4CCN(c5ccc(O)cc5)CC4)nc32)c1Cl` [Example 61, 4-(4-(9-(2-chloro-3-methoxyphenyl)-6-methyl-9H-purin-2-yl)piperazin-1-yl)phenol] and `Cc1nc(N2CCN(c3ccc(O)cc3)CC2)nc2c1ncn2-c1cccc(Cl)c1` [Example 65, 4-(4-(9-(3-chlorophenyl)-6-methyl-9H-purin-2-yl)piperazin-1-yl)phenol] fall in the same range of IC50: 1 to 9.77 µM for the first, 1 to 9.77 µM for the second.

`Oc1ccc(N2CCN(c3cc(-n4ncc5ccccc54)n4ncc(-c5cccnc5)c4n3)CC2)cc1` [Example 14, 4-(4-(7-(1H-indazol-1-yl)-3-(pyridin-3-yl)pyrazolo[1,5-a]pyrimidin-5-yl)piperazin-1-yl)phenol] and `O=C1c2ccccc2C(=O)N1CCn1cnc2c(-n3ncc4ccccc43)nc(N3CCN(c4ccc(O)cc4)CC3)nc21` [Example 136, 2-(2-(2-(4-(4-hydroxyphenyl)piperazin-1-yl)-6-(1H-indazol-1-yl)-9H-purin-9-yl)ethyl)isoindoline-1,3-dione] fall in the same range of IC50: 1 to 9.77 µM for the first, 1 to 9.77 µM for the second.

`Oc1ccc(N2CCN(c3nc(N4CCNCC4)c4ncn(-c5ccncc5)c4n3)CC2)cc1` [Example 178, 4-(4-(6-(piperazin-1-yl)-9-(pyridin-4-yl)-9H-purin-2-yl)piperazin-1-yl)phenol] and `OCC1CCN(c2nc(N3CCN(c4ccc(O)cc4)CC3)nc3c2ncn3-c2cccnc2)C1` (stereo not shown) [Example 94, 4-(4-(6-(3-(hydroxymethyl)pyrrolidin-1-yl)-9-(pyridin-3-yl)-9H-purin-2-yl)piperazin-1-yl)phenol] fall in the same range of IC50: 0.1 to 0.977 µM for the first, 0.1 to 0.977 µM for the second.

Compared with `CS(=O)(=O)NCCn1cnc2c(-n3ncc4ccccc43)nc(N3CCN(c4ccc(O)cc4)CC3)nc21` [Example 139, N-(2-(2-(4-(4-hydroxyphenyl)piperazin-1-yl)-6-(1H-indazol-1-yl)-9H-purin-9-yl)ethyl)methanesulfonamide], `C#CCn1cnc2c(-n3ncc4ccccc43)nc(N3CCC(O)(c4ccc(O)cc4)CC3)nc21` [Example 222, 1-(6-(1H-indazol-1-yl)-9-(prop-2-yn-1-yl)-9H-purin-2-yl)-4-(4-hydroxyphenyl)piperidin-4-ol] is lower in IC50: 1 to 9.77 µM for the first, 0.1 to 0.977 µM for the second.

`Nc1nc(N2CCN(c3ccc(O)cc3)CC2)nc2c(-c3ccncc3)c[nH]c12` [Example 226, 4-(4-(4-amino-7-(pyridin-4-yl)-5H-pyrrolo[3,2-d]pyrimidin-2-yl)piperazin-1-yl)phenol] and `Nc1nc(N2CCN(c3ccc(O)cc3)CC2)nc2c1ncn2-c1ccc(F)cc1` [Example 73, 4-(4-(6-amino-9-(4-fluorophenyl)-9H-purin-2-yl)piperazin-1-yl)phenol] cannot be ordered by IC50: over 10 µM for the first, over 10 µM for the second.

`Nc1nc(N2CCN(c3ccc(O)cc3)CC2)nc2c1ncn2-c1ccc(Cl)cc1Cl` [Example 69, 4-(4-(6-amino-9-(2,4-dichlorophenyl)-9H-purin-2-yl)piperazin-1-yl)phenol] and `Cc1ccccc1-n1cnc2c(N)nc(N3CCN(c4ccc(O)cc4)CC3)nc21` [Example 76, 4-(4-(6-amino-9-(o-tolyl)-9H-purin-2-yl)piperazin-1-yl)phenol] cannot be ordered by IC50: over 10 µM for the first, over 10 µM for the second.

Compared with `COc1ncccc1-n1cnc2c(N)nc(N3CCN(c4ccc(O)cc4)CC3)nc21` [Example 79, 4-(4-(6-amino-9-(2-methoxypyridin-3-yl)-9H-purin-2-yl)piperazin-1-yl)phenol], `Nc1nc(N2CCN(c3ccc(O)cc3)CC2)nc2c1ncn2-c1ccccc1` [Example 66, 4-(4-(6-amino-9-phenyl-9H-purin-2-yl)piperazin-1-yl)phenol] is lower in IC50: over 10 µM for the first, 1 to 9.77 µM for the second.

First: O=C(O)Cn1cnc2c(-n3nnc4cccnc43)nc(N3CCN(c4ccc(O)cc4)CC3)nc21 [Example 120, 2-(6-(3H-[1,2,3]triazolo[4,5-b]pyridin-3-yl)-2-(4-(4-hydroxyphenyl)piperazin-1-yl)-9H-purin-9-yl)acetic acid]
Second: Nc1nc(N2CCN(c3ccc(O)cc3)CC2)nc2c1ncn2Cc1ccccc1 [Example 89, 4-(4-(6-amino-9-benzyl-9H-purin-2-yl)piperazin-1-yl)phenol]
The IC50 of the first is lower: 0.01 to 0.0977 µM for the first, 1 to 9.77 µM for the second.

`CN(c1ccncc1)c1nc(N2CCC(O)(c3ccc(O)cc3)CC2)nc2[nH]cnc12` [Example 220, 4-(4-hydroxyphenyl)-1-(6-(methyl(pyridin-4-yl)amino)-9H-purin-2-yl)piperidin-4-ol] and `Cc1nc(N2CCC(O)(c3ccc(O)cc3)CC2)nc2c1ncn2-c1ccc(C#N)cc1` [Example 185, 4-(2-(4-hydroxy-4-(4-hydroxyphenyl)piperidin-1-yl)-6-methyl-9H-purin-9-yl)benzonitrile] cannot be ordered by IC50: over 10 µM for the first, over 10 µM for the second.

Compared with `O=C(O)Cn1cnc2c(-n3ncc4ccccc43)nc(N3CC(O)(c4ccccc4)C3)nc21` [Example 221, 2-(2-(3-hydroxy-3-phenylazetidin-1-yl)-6-(1H-indazol-1-yl)-9H-purin-9-yl)acetic acid], `Nc1nc(N2CCC(O)(c3ccc(F)cc3)CC2)nc2c1ncn2-c1cccnc1` [Example 209, 1-(6-amino-9-(pyridin-3-yl)-9H-purin-2-yl)-4-(4-fluorophenyl)piperidin-4-ol] is higher in IC50: 0.1 to 0.977 µM for the first, 1 to 9.77 µM for the second.

Compound `Nc1nc(N2CC(O)(c3ccns3)C2)nc2c1ncn2-c1ccncc1` [Example 213, 1-(6-amino-9-(pyridin-4-yl)-9H-purin-2-yl)-3-(isothiazol-5-yl)azetidin-3-ol] has an IC50 of over 10 µM.
